In patent US9994560B2, “HPTP-β inhibitors” (Aerpio Therapeutics Inc., priority 2014, dated 2018):
In brackets after ≈: the same amount, converted by molar mass. Several values for one entry are separate records, joined by “and”; a condition that tells them apart may be missing. Identical values can stand only once.

Columns and labels:
[1] = system: Akt phosphorylation, a measure of Tie2 activation; assay: Akt phosphorylation ELISA (PathScan Phospho-Akt1 (Ser473) Sandwich ELISA) in HUVECs; type: cell-based, human; settings: 10 minutes
Experimental: (§1) Human umbilical vein endothelial cells (HUVECs) were isolated freshly from human placenta, grown in endothelial growth medium, and used before passage 6. To evaluate the effects of the compounds on phosphorylation of Tie2 and downstream signaling molecules, cells were serum-starved in endothelial basal medium without added growth factors for 3 hours before stimulation. Cells were treated for 10 minutes with vehicle (DMSO), or compounds A, B, C, or D in DMSO. Cells were lysed in RIPA buffer (150 mM NaCl, 1% IGEPAL CA-630, 0.05% sodium deoxycholate, 0.1% SDS, 20 mM Tris-HCl at pH 7.6, 1 mM EDTA, 1 mM NaF, 1 mM sodium orthovanadate, 5 mM benzamidine) plus complete protease inhibitor cocktail tablets. Tie2 was then immunoprecipitated from cell lysates with a mouse monoclonal antibody (clone 33) and probed sequentially with mouse monoclonal anti-phosphotyrosine (clone 4G10) and anti-Tie2 (clone 33). Whole cell lysates were used to quantify phospho-AKT with the PathScan Phospho-Akt1 (Ser473) Sandwich ELISA Kit according to the manufacturer's instructions. Relative AKT phosphorylation in each experiment was quantified by OD450.
FIG. 45 represents data from an ELISA to determine Akt phosphorylation, a measure of Tie2 activation. Consistent with FIG. 44, compound D had the strongest effect on Tie2 activation, as determined by the high levels (OD450=1.2) of relative Akt phosphorylation even at the lowest dose of compound D (1 μg/mL). […] Akt phosphorylation further increased (OD450=0.45) when 10 μg/mL of compound A was used.

[2] = Room temperature aqueous solubility with solubilizing agents; type: physicochemical
Source text: The room temperature aqueous solubility (mg/mL) of the compound (4-{(S)-2[(S)-2-methoxycarbonylamino]-3-phenylpropanamido]-2-[2-(thiophen-2-yl)thiazol-4-yl]ethyl}phenylsulfamic acid) in water, HPβCD, Poloxamer 407, and sulfobutylether-β-cyclodextrin, is provided in TABLE III. Solubility in saline for the test compound is reduced presumably due to the common ion effect. All the solubilizing agents tested provided good improvements in aqueous solubility of the test compound.
The solubility (mg/mL) of the test compound in mixtures of HPβCD and PEG400 is illustrated in TABLE IV. Use of either HPβCD or PEG400 individually provided an increase in solubility. However, addition of PEG400 to a mixture of the test compound and HPβCD caused an erosion of solubility, with solubility being inversely proportional to the amount of PEG400.

[3] = system: human subjects with visual acuity loss due to diabetic macular edema; assay: Study of human subjects with diabetic macular edema given the compound subcutaneously, then intravitreal anti-VEGF agent; type: in vivo
Experimental: Described herein is a study of four human subjects with visual acuity loss due to diabetic macular edema (central retinal thickness [CRT] of more than 325 microns and best corrected visual acuity less than 70 letters) that were treated with subcutaneous injections of 5 mg of 4-{(S)-2-[(S)-2-methoxycarbonyl-amino]-3-phenylpropanamido]-2-[2-(thiophen-2-yl)thiazol-4-yl]ethyl}phenylsulfamic acid twice a day for 28 days. […] At any time during the course of the study, investigators could administer additional therapy of intravitreal injection of an anti-VEGF agent, for example, ranibizumab, bevacizumab, and/or aflibercept, if considered by the investigator to be medically necessary. Retinal thickness as measured by ocular coherence tomography and best-corrected visual acuity as measured by a standard vision test (ETDRS) were assessed at regular intervals during the 28 day active treatment phase and through the 2 month post-treatment observation phase, (Screening, Day 1 [baseline], Day 7, Day 14, Day 21, Day 28, Day 42, Day 56 and Day 84). The main efficacy outcomes for the study were change in CRT and visual acuity over time with treatment.
FIG. 47 depicts the results of a study wherein 4 patients received 5 mg of 4-{(S)-2-[(S)-2-methoxycarbonylamino]-3-phenylpropanamido]-2-[2-(thiophen-2-yl)thiazol-4-yl]ethyl}phenylsulfamic acid subcutaneously twice daily for 28 days and subsequently were treated in one or both eyes (7 eyes total) with either ranibizumab (0.3 or 0.5 mg) or aflibercept (2 mg) by intravitreal injection at the discretion of the study investigator.
FIG. 49 depicts the increased visual acuity of a study wherein 4 patients received 5 mg of 4-{(S)-2-[(S)-2-methoxycarbonylamino]-3-phenylpropanamido]-2-[2-(thiophen-2-yl)thiazol-4-yl]ethyl}phenylsulfamic acid subcutaneously twice daily for 28 days, and subsequently were treated with either ranibizumab (0.3 or 0.5 mg) or aflibercept (2 mg) by intravitreal injection at the discretion of the study investigator. FIG. 49 is read as follows. […] The mean change in Visual Acuity was 9 letters, approximately 3 to 5 letters more improvement than seen in the benchmark study of ranibizumab alone depicted in FIG. 48.
FIG. 50 represents the results of a single patient. The eye having the greater Central Foveal Thickness (CFT) was chosen as the study eye. From day 1, the patient was given 5 mg of 4-{(S)-2-[(S)-2-methoxycarbonylamino]-3-phenylpropanamido]-2-[2-(thiophen-2-yl)thiazol-4-yl]ethyl}phenylsulfamic acid subcutaneously twice daily. At week 3 (21 days, indicated by arrow) the fellow eye was treated with 0.5 mg of ranibizumab by injection. At week 6 (42 days, indicated by arrow) the study eye was treated with 0.5 mg of ranibizumab.
FIG. 51 represents the results of a single patient. The eye having the greater CFT was chosen as the Study Eye. The patient from day one was given 5 mg of 4-{(S)-2-[(S)-2-methoxycarbonylamino]-3-phenylpropanamido]-2-[2-(thiophen-2-yl)thiazol-4-yl]ethyl}phenylsulfamic acid subcutaneously twice daily. At week 4 (28 days, indicated by arrow) the fellow eye was rescued with 2 mg of aflibercept. […] At week 6 (42 days, indicated by arrow) the study eye was rescued with 2 mg of aflibercept. […] From onset of the study, a reduction was observed of CFT in the study eye and the fellow eye of approximately 300 μm and 280 μm, respectively.

Tie2 = Tie2 phosphorylation, immunoprecipitation and western blot in HUVECs; type: cell-based, human; settings: HUVECs treated for 10 minutes; anti-phosphotyrosine western blot (FIG. 44)
Experimental: as §1, with “Tie2 was then immunoprecipitated from cell lysates with a mouse monoclonal antibody (clone 33) and probed sequentially with mouse monoclonal anti-phosphotyrosine (clone 4G10) and anti-Tie2 (clone 33).” left out
FIG. 44 is a western blot of Tie2 immunoprecipitated from endothelial cells treated with DMSO control or the indicated compounds (D, C, B, or A), and then sequentially probed with an anti-Tie2 antibody to detect total Tie2 (lower blot) and an anti-phosphotyrosine antibody to detect phosphorylated Tie2 (upper blot). […] An increase in Tie2 phosphorylation compared to the DMSO control was not detected for compounds A, B, and C.

Compound: COC(=O)N[C@@H](Cc1ccccc1)C(=O)N[C@@H](Cc1ccc(NS(=O)(=O)O)cc1)c1csc(-c2cccs2)n1 [Compound D]
- relative Akt phosphorylation (OD450) ([1]; 1 μg/mL): 1.2
- relative Akt phosphorylation (OD450) ([1]; 3 μg/mL): 3.1
- relative Akt phosphorylation (OD450) ([1]; 10 μg/mL): did not increase further
- Solubility ([2]; 0% HPβCD, 15% PEG400): 30 mg/mL (≈ 51.1 mM)
- Solubility ([2]; 0% HPβCD, 30% PEG400): 68 mg/mL (≈ 116 mM)
- Solubility ([2]; 15% HPβCD, 0% PEG400): 59 mg/mL (≈ 101 mM)
- Solubility ([2]; 15% HPβCD, 5% PEG400): 57 mg/mL (≈ 97.2 mM)
- Solubility ([2]; 15% HPβCD, 10% PEG400): 34 mg/mL (≈ 57.9 mM)
- Solubility ([2]; 15% HPβCD, 15% PEG400): 6 mg/mL (≈ 10.2 mM)
- Central Foveal Reduction, individual patient eyes ([3]; 5 mg sc twice daily 28 days, then ranibizumab or aflibercept intravitreal, 14-28 days post anti-VEGF (FIG. 47), listed as 4-{(S)-2-[(S)-2-methoxycarbonylamino]-3-phenylpropanamido]-2-[2-(thiophen-2-yl)t): 50-100 μm and 150-200 μm and 200-250 μm and 300-350 μm and 350-400 μm and 450-500 μm
- improvement of visual acuity ([3]; 5 mg subcutaneously twice a day for 28 days, observed days 28 through 84): Improvement of visual acuity in these subjects was observed
- reduction in Central Foveal Thickness relative to ranibizumab injection in the study in FIG. 46 ([3]; compound sc then anti-VEGF versus ranibizumab alone): approximately double
- fall in CFT of the fellow eye ([3]; single patient (FIG. 50), 5 mg sc twice daily, fellow eye given 0.5 mg ranibizumab at week 3, by week 4): 350 μm
- reduction in CFT in the study eye ([3]; single patient (FIG. 50), day 21 to day 28, after ranibizumab to fellow eye): approximately 250 μm
- CFT of the study eye ([3]; single patient (FIG. 50), week 6, before ranibizumab to study eye): approximately 775 μm
- CFT of the study eye ([3]; single patient (FIG. 50), week 8): approximately 225 μm
- reduction of CFT in the fellow eye from onset of the study ([3]; single patient (FIG. 51)): ~280 μm
- Tie2 phosphorylation compared to the DMSO control (Tie2): substantial increase
